Key:
rat C6 glioma cells = experiment: Cell proliferation, [3H]thymidine incorporation, rat C6 glioma cells; assay type: cell-based; conditions: 6.5 μM, 18 h, hHO-1-transfected rat C6 glioma cells; hydrochloride
Experimental: Rat C6 glioma cells were cultivated in high glucose DMEM supplemented with 10% heat-inactivated fetal bovine serum, […], and penicillin-streptomycin (50 U/mL and 50 μg/mL, respectively). […] All cultures were incubated at 37° C. in humidified 95% air-5% CO2.
Cells were seeded in 24-well plates at 1×10^6 cells/mL/well. Upon reaching >90% confluence, cells in each well were transiently transfected with 1.6 μg of plasmid DNA-Lipofectamine 2000 complex using Lipofectamine 2000 method according to manufacturer instructions (Invitrogen). 1.6 μg of plasmid DNA and 4 μL of Lipofectamine 2000 reagent were diluted individually in 100 μL opti-MEM I and incubated for 5 minutes at room temperature with gentle mixing. […]
Cell proliferation was determined by [^3H]thymidine incorporation: Cells were plated in 24-well plates at 10^6 cells/mL/well in complete medium. […] The cells were trypsinized and collected, air-dried on 21 mm glass microfibre filters (Whatman International Ltd., Maidstone, England) and analyzed by scintillation counting in a Wallac-Liquid Scintillator Counter (Perkin Elmer Life Sciences, Boston, Mass., USA). [^3H]thymidine incorporation was expressed as counts per min (cpm) per mL.

[1] = tested on: HCT-116 colorectal carcinoma; experiment: Colorectal carcinoma model HCT-116 in SCID mice; assay type: in vivo, human
Text: (§1) Control groups received the vehicle alone.

[2] = tested on: SKMEL 28-V+ cells (human melanoma); experiment: Melanoma model SKMEL-V+ in SCID mice (combination study); assay type: in vivo; conditions: QC-56 60 mg/kg/ip; Dacarbazine 55 mg/kg
Experimental: SKMEL 28-V+ cells (human melanoma). These cells were originally from the ATCC and then engineered to overexpress VEGF. […] The cells were tested to be free of mycoplasma.
as §1

[3] = tested on: Panc-1 human pancreatic carcinoma cells; experiment: Human pancreatic cancer model Panc-1 in SCID mice; assay type: in vivo; conditions: 30 and 60 mg/kg i.p.
Text: Human pancreatic carcinoma cells (“Panc-1 cells”) were originally received from the ATCC (American Type Culture Collection).
Only those cells with >95% viability were used for in-vivo studies.
Once tumors reached a size of approximately 0.7 cm^3, they were removed under sterile condition, sliced into small pieces under a stereo-microscope. Each tissue piece was then reinoculated subcutaneously. Only pieces of approximately the same size and with no signs of necrosis were used.
At the end of the experiment, mice were sacrificed by cervical dislocation and full autopsies were conducted. A picture was taken of tumors from randomly selected mice. The tumors were then fixed in formalin for pathology examination.

SKMEL-V+ cells [4] = experiment: Cell proliferation / survival, MTT assay, SKMEL-V+ cells; assay type: cell-based, human; conditions: 6.25 μM to 100 μM, 96 hours
Experimental: Exponentially growing SKMEL-V+ cells (1×10^3) were seeded in 96-well plates in complete medium. […] Cell survival was evaluated 96 hours later using the MTT metabolic assay (Benlimame N, He Q, Jie S, et al. FAK signaling is critical for ErbB-2/ErbB-3 receptor cooperation for oncogenic transformation and invasion. J Cell Biol 2005; 171: 505-16).

[5] = Pharmacokinetic evaluation of QC-199 in mouse plasma, IV infusion; assay type: in vivo
Experimental: Regular male CD1 mice, 6 weeks old, were obtained from Charles River Laboratories, St. Zotique, PQ, Canada. The mice weighed 22-28 g. The experiments were approved by the Animal Care Committee, McGill University, Montreal, Quebec. The animals were housed in individual cages and were fed standard rodent chow and water ad libitum. Mice weights were measured with a digital balance accurate to 0.05 g and then received QC-199 at the indicated doses either orally, or via i.p. injections or following i.v. slow infusion. In the case of i.v. injection or i.v. infusion, mice were anesthetized using isoflurane-based system (DISPOMED, MODUFLEX COMPACT NRB, 3975-0800-000). For the infusion, a mini pump (NE-1800, New Era Pump Systems, Inc.) was used to infuse the compound via the tail vein during a 2 h period. In one study, blood and brain tissue samples were collected at various time points after administration of QC-199 using EDTA tubing (Das Original S-Monovette EDTA KE/1.2 ml lot.9094102 and Needle for S-Monovette 22G lot. 8073401) via cardiac puncture and immediately stored at 4° C. Serum was collected after the samples were centrifuged 2200×, 4° C. for 20 minutes and stored at −80° C. until analysis. For the brain tissue collection, skin of mice was removed and brain was carefully dissected out from the skull, transferred into a Petri dish, briefly washed with ice-cold phosphate-buffered saline (PBS), and immediately stored at −80° C. until further analysis.
The assay of QC-199 in mouse plasma and brain samples was carried out using qualified LC/MS/MS assay methods.

SKMEL-V+ cells [6] = experiment: Melanoma efficacy study of QC-199, SKMEL-V+ cells s.c. in Scid mice; assay type: in vivo, human; conditions: for reduction of tumor volume vs vehicle: 2 cycles
Experimental: BD PharMingen, San Diego, Calif.). Cryostat sections were used for CD31 staining. […] Sections were rehydrated in PBS and then blocked with 5% normal goat serum for 1 h. The sections were then incubated overnight at 4° C. with CD31 antibody diluted 1:25 in 3% BSA-PBS. […] Sections were counterstained with Harris' hematoxylin and mounted. Slides were analyzed by conventional light microscopy and photographed using color slides (Eastman Kodak, Rochester, N.Y.). Balb/c Scid mice, 6 week-old, were obtained from Charles River Laboratories, St. Zotique, PQ, Canada. The mice weighed 18-22 g. The experiments were approved by the Animal Care Committee, McGill University, Montreal. The animals were housed in individual cages (4 per cage) and were fed standard rodent chow and water ad libitum. […] When the tumors become palpable (size of a rice), mice weights were measured with a digital balance accurate to 0.05 g. […] For the infusion, mice were anesthetized using isoflurane-based system ([…] COMPACT NRB, 3975-0800-000). For the infusion, a mini pump (NE-1800, New Era Pump Systems, Inc.) was used to infuse the compound via the tail vein during a 2 h period. […] At experiment termination, mice were anesthetized with isoflurane and sacrificed by cervical dislocation. Tumors were dissected and tumor weights were measured using a digital balance.

[7] = male, CD-1, mouse, in vivo, IV infusion

Row | Compound | effect of hHO-1 transfection on 3H-thymidine incorporation (rat C6 glioma cells) | mouse mortality ([1]; 60 mg/kg, HCT-116 model (FIG. 25)) | reduction of tumor volume at the time of sacrifice compared to control ([1]; QC-56 60 mg/kg/ip, 5-FU 60 mg/kg/ip reduced to 40 mg/kg) | inhibition of tumor growth compared to vehicle alone [2] | tumor size on the day of sacrifice [2] [cm^3] | anti-tumor activity [3] | % cell survival (SKMEL-V+ cells [4]) | AUC_%Extrap_obs ([5]; IV infusion) [%] | AUC(0-inf) [5, 7] [µg·h/mL] | Tmax [5, 7] [h] | half-life ([5]; male, CD-1, mouse, in vivo, IV infusion, from Lambda z, read-out: T½ (converted)) [h] | AUC ([5]; male, CD-1, mouse, in vivo, IV infusion, read-out: AUCall (0-24 h)) [µg·h/mL] | Cmax ([5]; mouse, 90 min IV infusion, male CD-1 mice) [ng/mL] | reduction of tumor volume vs vehicle (SKMEL-V+ cells [6]; 30 mg/kg i.v. infusion, d1, 3, 5 per cycle) [%] | reduction of tumor volume vs vehicle (SKMEL-V+ cells [6]; 60 mg/kg i.v. infusion, d1, 3, 5 per cycle, p less than 0.05) [%] | reduction of tumor volume vs vehicle (SKMEL-V+ cells [6]; 200 mg/kg i.v. infusion, d1, 5 per cycle, p less than 0.01) [%] | reduction of tumor volume vs vehicle (SKMEL-V+ cells [6]; 1000 mg/kg i.v. infusion, d1, 5 per cycle, p less than 0.01) [%] | vascularization of dissected tumors (H&E staining) (SKMEL-V+ cells [6]; QC-199 30-1000 mg/kg)
1 | Brc1ccc(CCC2(Cn3ccnc3)OCCO2)cc1.Cl [QC-56, 1-((2-(2-(4-Bromophenyl)ethyl)-1,3-dioxolan-2-yl)methyl)-1H-imidazole hydrochloride] | significantly attenuated | but not QC-56, induced mortality | approximately 23% | approximately 42% | 1.03±0.16 | not in the pancreatic cancer model Panc-1 | Dose dependent decrease in cell survival |  |  |  |  |  |  |  |  |  |  | 
2 | Brc1ccc(CCCCn2ccnc2)cc1.Cl [QC-199, 1-[4-(4-bromophenyl)butyl]-1H-imidazole hydrochloride] |  |  |  |  |  |  | Dose dependent decrease in cell survival | 37 | 224 | 3 | 18 | 141 | 8000 | 30 | 52 | 69 | 78 | dose dependent reduction in vascularization

From US20140155445A1, “Compounds and Methods for Treating Cancer and Diseases of the Central Nervous System” (Osta Biotechnologies Inc., priority 2007, published 2014)
